Results taken from patent publication US20220306617A1, “SUBSTITUTED 1,3-PHENYL HETEROARYL DERIVATIVES AND THEIR USE IN THE TREATMENT OF DISEASE” (NOVARTIS AG, priority 2019, published 2022).

Target: T1, abc isoform of human TMEM16A channel expressed in CHO cells (Homo sapiens, UniProt Q5XXA6, DEL476-501)
T1 construct: expressed in transfected cells; host or cells: CHO cells, doxycycline-inducible expression under Blasticidin/Zeocin selection
T1 sequence (Q5XXA6 with tags, fused parts or gaps isoform Q5XXA6-5 DEL539-564): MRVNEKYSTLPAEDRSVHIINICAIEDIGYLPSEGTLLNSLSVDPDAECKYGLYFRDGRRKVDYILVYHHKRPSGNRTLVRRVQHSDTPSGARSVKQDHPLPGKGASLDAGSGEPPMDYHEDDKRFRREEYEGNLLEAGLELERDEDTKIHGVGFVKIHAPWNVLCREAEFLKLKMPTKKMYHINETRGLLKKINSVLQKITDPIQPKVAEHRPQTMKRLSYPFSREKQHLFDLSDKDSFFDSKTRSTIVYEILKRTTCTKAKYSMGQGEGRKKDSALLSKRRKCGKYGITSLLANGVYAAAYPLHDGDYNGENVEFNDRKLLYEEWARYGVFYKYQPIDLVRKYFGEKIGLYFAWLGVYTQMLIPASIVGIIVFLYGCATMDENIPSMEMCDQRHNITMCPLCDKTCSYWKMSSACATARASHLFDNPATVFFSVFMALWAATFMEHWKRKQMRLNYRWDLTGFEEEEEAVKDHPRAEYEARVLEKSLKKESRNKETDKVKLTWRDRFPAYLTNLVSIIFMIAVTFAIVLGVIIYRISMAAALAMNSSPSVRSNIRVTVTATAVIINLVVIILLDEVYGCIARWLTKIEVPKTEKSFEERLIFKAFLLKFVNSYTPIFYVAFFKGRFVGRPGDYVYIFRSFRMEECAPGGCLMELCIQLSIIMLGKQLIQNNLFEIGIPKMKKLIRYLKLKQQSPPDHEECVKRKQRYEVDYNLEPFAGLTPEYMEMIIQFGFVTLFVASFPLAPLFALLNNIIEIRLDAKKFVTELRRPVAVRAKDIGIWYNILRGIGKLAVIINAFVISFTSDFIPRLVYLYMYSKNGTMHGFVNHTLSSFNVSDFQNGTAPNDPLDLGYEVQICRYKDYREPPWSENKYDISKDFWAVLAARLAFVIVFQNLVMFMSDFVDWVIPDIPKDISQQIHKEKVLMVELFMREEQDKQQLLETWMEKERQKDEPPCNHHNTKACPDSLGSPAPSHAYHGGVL
Experiment: Automated patch clamping (QPatch) assay to measure TMEM16A activity in whole-cell
Assay type: cell-based
Conditions: for EC50: CHO cells expressing human TMEM16A (abc), whole-cell automated patch clamp, Hill fit, read-out: TMEM16A QPATCH assay EC50 V3 EC50; for TMEM16A QPATCH assay EC50 V3 Assay Window (% TMEM16A max activation) / Emax: maximum current at highest dose relative to reference potentiator at maximal concentration (upper limit) and vehicle (lower limit); for Emax: CHO, read-out: TMEM16A QPATCH assay EC50 V3 Assay Window (% TMEM16A max activation)
In short: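 CHO cells with doxycycline-induced (1 μg/mL, 18-24 h) human TMEM16A abc isoform; QPatch whole-cell recording, hold −70 mV, step +70 mV 1500 ms, then −90 to +70 mV ramp. Compounds in 0.3% DMSO; EC50 by Hill fit; % max activation relative to vehicle baseline and reference potentiator maximum.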

Compound | EC50 [nM] | TMEM16A QPATCH assay EC50 V3 Assay Window (% TMEM16A max activation) [%] | Emax [%]
CCC(CC)NC(=O)c1cnc(-c2cccc(-c3cc(C(=O)NC(C4CC4)C4CCCO4)n[nH]3)c2)o1 (single isomer, unassigned) [Example 3.4 (ii), 2-(3-(3-((Cyclopropyl(Tetrahydrofuran-2-Yl)Methyl)Carbamoyl)-1H-Pyrazol-5-Yl)Phenyl)-N-(Pentan-3-Yl)Oxazole-5-Carboxamide] | 260 | 115 | 
CCOC(=O)[C@@H](NC(=O)c1cnc(-c2cccc(-c3cc(C(=O)NC(CC)CC)n(CCN4CCOCC4)n3)c2)o1)C(C)C [Example 6.0, (S)-ethyl 3-methyl-2-(2-(3-(1-(2-morpholinoethyl)-5-(pentan-3-ylcarbamoyl)-1H-pyrazol-3-yl)phenyl)oxazole-5-carboxamido)butanoate] | 310 |  | 90
CCC(CC)NC(=O)c1cc(-c2cccc(-c3ncc(C(=O)NCC(=O)OC(C)C)o3)c2)[nH]n1 [Example 1.32, Isopropyl 2-(2-(3-(3-(Pentan-3-Ylcarbamoyl)-1 H-Pyrazol-5-yl)Phenyl)Oxazole-5-Carboxamido)Acetate] | 880 |  | 77
CCCC(CCC)NC(=O)c1cnc(-c2cccc(-c3cc(C(=O)NC(CC)CC)n[nH]3)c2)o1 [Example 1.35, N-(Heptan-4-Yl)-2-(3-(3-(Pentan-3-Ylcarbamoyl)-1H-Pyrazol-5-yl)Phenyl)Oxazole-5-Carboxamide] | 70 |  | 90
C[C@H](NC(=O)c1nnc(-c2cccc(-c3ncc(C(=O)N[C@@H](C)C4CC4)o3)c2)[nH]1)C1CC1 [Example 12.0, N-((S)-1-Cyclopropylethyl)-2-(3-(5-(((S)-1-Cyclopropylethyl)Carbamoyl)-4H-1,2,4-Triazol-3-Yl)Phenyl)Oxazole-5-Carboxamide] | 300 |  | 63
CCC(NC(=O)c1cnc(-c2cccc(-c3cc(C(=O)N[C@@H](C)C4CC4)[nH]n3)c2)o1)C1CC1 (stereo partly drawn) [Example 1.48, 2-(3-(5-(((S)-1-Cyclopropylethyl)Carbamoyl)-1H-Pyrazol-3-Yl)Phenyl)-N-(1-Cyclopropylpropyl)Oxazole-5-Carboxamide] | 70 |  | 59
CCC(CC)NC(=O)c1cc(-c2cccc(-c3ncc(C(=O)N[C@H](C)C(C)C)o3)c2)[nH]n1 [Example 1.46, (R)-N-(3-Methylbutan-2-Yl)-2-(3-(3-(Pentan-3-Ylcarbamoyl)-1 H-Pyrazol-5-yl)Phenyl)Oxazole-5-Carboxamide] | 990 |  | 19
CCC(CC)NC(=O)c1cnc(-c2cccc(-c3cc(C(=O)N[C@@H](C)C4CC4)n(CCO)n3)c2)o1 [Example 9.8, (S)-2-(3-(5-((1-cyclopropylethyl)carbamoyl)-1-(2-hydroxyethyl)-1 H-pyrazol-3-yl)phenyl)-N-(pentan-3-yl)oxazole-5-carboxamide] | 180 |  | 88
CCC(CC)NC(=O)c1cnc(-c2cccc(-c3cc(C(=O)NC(C4CC4)C4CCCO4)n[nH]3)c2)o1 (single isomer, unassigned) [Example 3.4 (iii), 2-(3-(3-((Cyclopropyl(Tetrahydrofuran-2-Yl)Methyl)Carbamoyl)-1H-Pyrazol-5-Yl)Phenyl)-N-(Pentan-3-Yl)Oxazole-5-Carboxamide] | 550 | 73 | 
CCC(CC)NC(=O)c1cnc(-c2cccc(-c3cc(C(=O)N4CCCC(C)(C)C4)n[nH]3)c2)o1 [Example 3.15, 2-(3-(3-(3,3-Dimethylpiperidine-1-Carbonyl)-1H-Pyrazol-5-Yl)Phenyl)-N-(Pentan-3-Yl)Oxazole-5-Carboxamide] | 200 |  | 72
CCC(CC)NC(=O)c1cnc(-c2cccc(-c3cc(C(=O)N[C@H](C(=O)OC)C(C)C)n[nH]3)c2)o1 [Example 3.41, (S)-Methyl 3-Methyl-2-(5-(3-(5-(Pentan-3-Ylcarbamoyl)Oxazol-2-Yl)Phenyl)-1H-Pyrazole-3-Carboxamido)Butanoate] | 130 |  | 89
CCC(CC)NC(=O)c1cnc(-c2cccc(-c3cc(C(=O)NCc4ccc(F)cc4)n[nH]3)c2)o1 [Example 3.45, 2-(3-(3-((4-Fluorobenzyl)Carbamoyl)-1 H-Pyrazol-5-Yl)Phenyl)-N-(Pentan-3-yl)Oxazole-5-Carboxamide] | 550 |  | 81
CCC(CC)NC(=O)c1cnc(-c2cccc(-c3nc(C(=O)NC(CC)CC)n(CCN4CCCCC4)n3)c2)o1 [Example 15.0, N-(Pentan-3-Yl)-2-(3-(5-(Pentan-3-Ylcarbamoyl)-1-(2-(Piperidin-1-Yl)Ethyl)-1H-1,2,4-Triazol-3-Yl)Phenyl)Oxazole-5-Carboxamide] | 420 |  | 161
C[C@H](NC(=O)c1cc(-c2cccc(-c3ncc(C(=O)N[C@H](C)C4CC4)o3)c2)nn1CCO)C1CC1 [Example 10.2, N-((R)-1-Cyclopropylethyl)-2-(3-(5-(((S)-1-Cyclopropylethyl)Carbamoyl)-1-(2-Hydroxyethyl)-1H-Pyrazol-3-Yl)Phenyl)Oxazole-5-Carboxamide] | 680 |  | 108
CCC(CC)NC(=O)c1cnc(-c2cccc(-c3cc(C(=O)NC(C)(C)C)n[nH]3)c2)o1 [Example 3.43, 2-(3-(3-(Tert-Butylcarbamoyl)-1 H-Pyrazol-5-Yl)Phenyl)-N-(Pentan-3-yl)Oxazole-5-Carboxamide] | 130 |  | 84
CCC(CC)NC(=O)c1cnc(-c2cccc(-c3nc(C(=O)NC(CC)CC)n(CC(=O)OC(C)(C)C)n3)c2)o1 [Example 15.10, Tert-Butyl 2-(5-(Pentan-3-Ylcarbamoyl)-3-(3-(5-(Pentan-3-Ylcarbamoyl)Oxazol-2-Yl)Phenyl)-1H-1,2,4-Triazol-1-Yl)Acetate] | 80 |  | 73
CCOC(=O)C1(C)CCN(C(=O)c2cc(-c3cccc(-c4ncc(C(=O)NC(CC)CC)o4)c3)[nH]n2)C1 (stereo not shown) [Example 3.20, Ethyl 3-Methyl-1-(5-(3-(5-(Pentan-3-Ylcarbamoyl)Oxazol-2-Yl)Phenyl)-1H-Pyrazole-3-Carbonyl)Pyrrolidine-3-Carboxylate] | 450 |  | 82
CCOC(=O)[C@@H](NC(=O)c1cnc(-c2cccc(-c3cc(C(=O)NC(CC)CC)n(CCO)n3)c2)o1)C(C)C [Example 4.1, (S)-Ethyl 2-(2-(3-(1-(2-Hydroxyethyl)-5-(Pentan-3-Ylcarbamoyl)-1H-Pyrazol-3-Yl)Phenyl)Oxazole-5-Carboxamido)-3-Methylbutanoate] | 27 |  | 81
C[C@H](NC(=O)c1nnc(-c2cccc(-c3ncc(C(=O)N[C@H](C)C4CC4)o3)c2)[nH]1)C1CC1 [Example 12.1, N-((R)-1-Cyclopropylethyl)-2-(3-(5-(((S)-1-Cyclopropylethyl)Carbamoyl)-4H-1,2,4-Triazol-3-Yl)Phenyl)Oxazole-5-Carboxamide] | 270 |  | 80
CCC(CC)NC(=O)c1cc(-c2cccc(-c3ncc(C(=O)NC(CC)C(C)C)o3)c2)[nH]n1 (stereo not shown) [Example 1.11, N-(2-Methylpentan-3-Yl)-2-(3-(3-(Pentan-3-Ylcarbamoyl)-1H-Pyrazol-5-yl)Phenyl)Oxazole-5-Carboxamide] | 270 |  | 165
